The values that follow come from patent US9770026B2, “Substituted pyrimidine compound and uses thereof” (Shenyang Sinochem Agrochemicals R&D Co., Ltd., priority 2012, dated 2017).

The structures appear in SMILES notation.

In test [1] the test system is corn rust. Briefly: protectant activity in vivo against corn rust. The conditions noted are these: protectant activity; for pest or weed control at 6.25 µg/mL: read-out: control effect against corn rust (%), 6.25 mg/L; for pest or weed control at 25 µg/mL: read-out: control effect against corn rust (%), 25 mg/L; for pest or weed control at 100 µg/mL: read-out: control effect against corn rust (%), 100 mg/L; for pest or weed control at 400 µg/mL: read-out: control effect against corn rust (%), 400 mg/L.

The subject of test [2] is Green peach aphids (Myzus Persicae Sulzer). Kind of test: bioactivity test against green peach aphid, airbrush foliar spray. In kind it is in vivo. The conditions noted are these: contrastive test. The procedure, abridged: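 Death rate was scored at 48 hrs, held at 25±1 C and 60±5% RH, following airbrush foliar spray (0.5 mL, 10 psi) onto cabbage leaf discs bearing about 15-30 aphids. Test solutions: compound dissolved in 1:1 acetone:methanol, brought to concentration with 0.1% tween 80 water.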

For test [3], the system named is wheat powdery mildew. Briefly: protectant activity in vivo against wheat powdery mildew. The conditions noted are these: protectant activity; for pest or weed control at 6.25 µg/mL / pest or weed control at 25 µg/mL / pest or weed control at 100 µg/mL / pest or weed control at 400 µg/mL: Triticum aestivum, 168 h; for pest or weed control at 6.25 µg/mL: read-out: control effect against wheat powdery mildew (%), 6.25 mg/L; for pest or weed control at 25 µg/mL: read-out: control effect against wheat powdery mildew (%), 25 mg/L; for pest or weed control at 100 µg/mL: read-out: control effect against wheat powdery mildew (%), 100 mg/L; for pest or weed control at 400 µg/mL: read-out: control effect against wheat powdery mildew (%), 400 mg/L.

For test [4], the system named is Diamond back moth. Briefly: insecticidal activity against diamond back moth, airbrush spray. It counts as in vivo. The conditions noted are these: for pest or weed control at 600 µg/mL: 72 h. The method, then: (§1) Compounds were dissolved in mixed solvent (acetone:methanol=1:1), and diluted to required concentration with water containing 0.1% of tween 80.
(§2) Diamond back moth, armyworm, peach aphid and carmine spider mite were used as targets and the method of spraying by airbrush was used for determination of insecticidal biassays.
The method of spraying by airbrush: The cabbage leaves were made into plates of 2 cm diameter by use of punch. A test solution (0.5 ml) was sprayed by airbrush at the pressure of 0.7 kg/cm^2 to both sides of every plate. 10 Second instar larvae were put into the petri-dishes after the leaf disc air-dried and 3 replicates were set for each treatment. Then the insects were maintained in observation room (25° C., 60˜70% R.H.). Scores were conducted and mortalities were calculated after 72 hrs.

Test [5] deals with cucumber downy mildew. Briefly: protectant activity in vivo against cucumber downy mildew. The conditions noted are these: protectant activity; for pest or weed control at 25 µg/mL: read-out: control effect against cucumber downy mildew (%), 25 mg/L; for pest or weed control at 50 µg/mL: read-out: control effect against cucumber downy mildew (%), 50 mg/L; for pest or weed control at 100 µg/mL: read-out: control effect against cucumber downy mildew (%), 100 mg/L; for pest or weed control at 400 µg/mL: read-out: control effect against cucumber downy mildew (%), 400 mg/L.

In test [6] the test system is armyworm. Kind of test: bioactivity test against armyworm, airbrush spray. In kind it is in vivo. The settings on record: 600 mg/L; for pest or weed control at 600 µg/mL: 72 h, read-out: Insecticidal activity against armyworm (%). The method, then: as §1, §2
The method of spraying by airbrush: The corn leaves were made into plates of 2 cm diameter by use of punch. A test solution (0.5 ml) was sprayed by airbrush at the pressure of 0.7 kg/cm^2 to both sides of every plate. 10 Second instar larvae were put into the petri-dishes after the leaf disc air-dried and 3 replicates were set for each treatment. Then the insects were maintained in observation room (25 °C, 60˜70% R.H.). Scores were conducted and mortalities were calculated after 72 h.

Test [7] concerns carmine spider mite. Briefly: bioactivity test against carmine spider mite, airbrush spray. In kind it is in vivo. The settings on record: Tetranychus cinnabarinus, 72 h, contrastive test, read-out: Insecticidal activity against carmine spider mite (% ). The procedure, abridged:
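Broadbean seedlings infested with adult mites were sprayed with compound (acetone/methanol stock diluted in 0.1% Tween 80 water) by airbrush at 0.7 kg/cm^2, 0.5 ml. Three replicates were run. Mortality was scored after 72 hrs.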

Where [8] appears, read: Myzus persicae, foliar, 48 h, 10 mg/L, read-out: Insecticidal activity against peach aphid (%).
The mark [9] stands for this setting: Myzus persicae, foliar, 48 h, 100 mg/L, read-out: Insecticidal activity against peach aphid (%).
Where [10] appears, read: Myzus persicae, foliar, 48 h, 600 mg/L, read-out: Insecticidal activity against peach aphid (%).

Turning to `CCc1ncnc(NC(C)c2ccc(Oc3ccc(F)cc3)nc2)c1Cl` (stereo not shown) [CK9, reference compound], the “control effect against corn rust (%)” value is 0% in test [1] (6.25 mg/L), 20% in test [1] (25 mg/L), 100% in test [1] (100 mg/L) and 100% in test [1] (400 mg/L). The “Insecticidal activity against peach aphid (%)” value was 23% in test [2] (10 mg/L), 79% in test [2] (100 mg/L) and 100% in test [2] (600 mg/L). Also, the “control effect against wheat powdery mildew (%)” value in test [3] (6.25 mg/L) was 0%; in test [3] (25 mg/L) it was 0%; in test [3] (100 mg/L) it was 0%; in test [3] (400 mg/L) it was 100%. Further, the “Insecticidal activity against diamond back moth (%)” value was determined as 25% in test [4] (10 mg/L), 45% in test [4] (100 mg/L) and 100% in test [4] (600 mg/L). In addition, the “control effect against cucumber downy mildew (%)” value in test [5] (25 mg/L) is recorded as 70%; in test [5] (50 mg/L) it was 90%; in test [5] (100 mg/L), 98%; in test [5] (400 mg/L), 100%. The “Insecticidal activity against armyworm (%)” value in test [6] came to 40%.

With `CCc1ncnc(NC(C)c2ccc(Oc3ccc(C(C)(C)C)cc3)nc2)c1Cl` (stereo not shown) [CK10, reference compound], the “control effect against corn rust (%)” value in test [1] (400 mg/L) stood at 50%. The “Insecticidal activity against peach aphid (%)” value in test [2] (10 mg/L) worked out at 23%; in test [2] (100 mg/L) it was 91%; in test [2] (600 mg/L) it was 100%. In test [3] (400 mg/L), the “control effect against wheat powdery mildew (%)” value came out at 50%. In addition, in test [4] (600 mg/L), the “Insecticidal activity against diamond back moth (%)” value is reported as 33%. Moreover, the “control effect against cucumber downy mildew (%)” value in test [5] (25 mg/L) is 20%; in test [5] (50 mg/L) it was 40%; in test [5] (100 mg/L), 82%; in test [5] (400 mg/L), 100%. In test [6], the “Insecticidal activity against armyworm (%)” value was determined as 0%.

With `Cc1ncnc(NC(C)c2ccc(Oc3ccc(C(F)(F)F)cn3)cc2)c1Cl` (stereo not shown) [CK28, reference compound], in test [1] (Zea mays, 168 h, read-out: control effect against corn rust (%), 0.4 mg/L), the pest or weed control at 0.4 µg/mL came to 0%. The pest or weed control at 1.6 µg/mL in test [1] (Zea mays, 168 h, read-out: control effect against corn rust (%), 1.6 mg/L) turned out to be 0%. Also, the pest or weed control at 6.25 µg/mL in test [1] (Zea mays, 168 h) was determined as 95%. Further, the pest or weed control at 25 µg/mL in test [1] (Zea mays, 168 h) came to 100%; in test [5] (Cucumis sativus, 168 h) it was 0%. The pest or weed control at 100 µg/mL in test [1] (Zea mays, 168 h) was found to be 100%; in test [2] (setting [9]), 100%; in test [7] (100 mg/L), 100%; in test [5] (Cucumis sativus, 168 h), 40%. Moreover, the pest or weed control at 400 µg/mL is 100% in test [1] (Zea mays, 168 h) and 100% in test [5] (Cucumis sativus, 168 h). For the same compound, the pest or weed control at 10 µg/mL turned out to be 43% in test [2] (setting [8]) and 22% in test [7] (10 mg/L). Further, the pest or weed control at 600 µg/mL in test [2] (setting [10]) is 100%; in test [7] (600 mg/L), 100%; in test [4] (600 mg/L), 0%; in test [6], 29%. For the same compound, the pest or weed control at 50 µg/mL in test [5] (Cucumis sativus, 168 h) came to 20%.

As for `Cc1ncnc(NC(C)c2ccc(Oc3nc(Cl)c(Cl)cc3Cl)cc2)c1Cl` (stereo not shown) [CK29, reference compound], in test [1] (Zea mays, 168 h), the pest or weed control at 6.25 µg/mL worked out at 30%, the pest or weed control at 25 µg/mL was found to be 85%, the pest or weed control at 100 µg/mL worked out at 95% and the pest or weed control at 400 µg/mL worked out at 100%. Moreover, the pest or weed control at 600 µg/mL in test [2] (setting [10]) worked out at 0%. Besides, in test [3], the pest or weed control at 6.25 µg/mL was determined as 40%, the pest or weed control at 25 µg/mL turned out to be 50%, the pest or weed control at 100 µg/mL stood at 80% and the pest or weed control at 400 µg/mL was found to be 100%. In addition, the pest or weed control at 600 µg/mL in test [4] (600 mg/L) stood at 0%. In test [5] (Cucumis sativus, 168 h), the pest or weed control at 25 µg/mL is 25%, the pest or weed control at 50 µg/mL is 90%, the pest or weed control at 100 µg/mL was found to be 98% and the pest or weed control at 400 µg/mL was determined as 98%. The pest or weed control at 600 µg/mL in test [6] was found to be 14%.

For `CCc1ncnc(NCc2ccc(Oc3ccc(C(F)(F)F)cn3)cc2)c1Cl` [CK42, reference compound], the pest or weed control at 400 µg/mL stood at 70% in test [1] (Zea mays, 168 h); 100% in test [3]; 100% in test [5] (Cucumis sativus, 168 h). The pest or weed control at 2.5 µg/mL in test [2] (Myzus persicae, foliar, 48 h, 2.5 mg/L, read-out: Insecticidal activity against peach aphid (%)) was found to be 0%. In addition, in test [2] (Myzus persicae, foliar, 48 h, 5 mg/L, read-out: Insecticidal activity against peach aphid (%)), the pest or weed control at 5 µg/mL came out at 17%. For the same compound, in test [2] (setting [8]), the pest or weed control at 10 µg/mL was 20%. Further, the pest or weed control at 100 µg/mL in test [2] (setting [9]) was 67%; in test [3] it was 70%; in test [5] (Cucumis sativus, 168 h), 100%. In addition, the pest or weed control at 600 µg/mL was 100% in test [2] (setting [10]), 0% in test [4] (600 mg/L) and 0% in test [6]. For the same compound, the pest or weed control at 6.25 µg/mL stood at 50% in test [3] and 0% in test [5] (Cucumis sativus, 168 h, read-out: control effect against cucumber downy mildew (%), 6.25 mg/L). The pest or weed control at 25 µg/mL was found to be 60% in test [3] and 20% in test [5] (Cucumis sativus, 168 h). The pest or weed control at 3.125 µg/mL in test [5] (Cucumis sativus, 168 h, read-out: control effect against cucumber downy mildew (%), 3.125 mg/L) is 0%. The pest or weed control at 12.5 µg/mL in test [5] (Cucumis sativus, 168 h, read-out: control effect against cucumber downy mildew (%), 12.5 mg/L) is 0%. Also, in test [5] (Cucumis sativus, 168 h), the pest or weed control at 50 µg/mL amounted to 100%.
